Reference: US12410171B2, “Tropomyosin receptor kinase (TRK) degradation compounds and methods of use” (Cullgen (Shanghai), Inc., priority 2020, dated 2025)
Read-outs that look alike come from different tables or passages of the source.

Columns and labels:
[1] = tested on: KM12 cells; test: KM12 cell viability (CellTiter-Glo); format: cell-based; details: Homo sapiens, 72 h, KM12 cell viability, CellTiter-Glo, read-out: IC50
How it was run: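 KM12 cells seeded at 5000 per well in RPMI 1640 + 10% FBS and exposed 3 days to serial dilutions (11-point 3-fold, 8-point 3-fold from 1000 nM, or 12-point 2-fold). Viability by CellTiter-Glo; IC50 from least-squares nonlinear regression.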

[2] = target: T1, TPM3-TRKA fusion protein (Homo sapiens, UniProt P04629); test: TPM3-TRKA fusion protein levels in KM12 cells (Western blot); format: cell-based; details: 16 h, read-out: Degradation (at 10 nM)
T1 construct: The resulted chimeric proteins always retain the kinase domain of TRK proteins; TPM3 (fusion partner, N-terminal part of tropomyosin alpha-3, P06753); endogenous in cells; host or cells: KM12 colon cancer cells; the other entry of the earlier key: TPM3 (P06753, Tropomyosin alpha-3 chain)
T1 sequence (P04629 with tags, fused parts or gaps): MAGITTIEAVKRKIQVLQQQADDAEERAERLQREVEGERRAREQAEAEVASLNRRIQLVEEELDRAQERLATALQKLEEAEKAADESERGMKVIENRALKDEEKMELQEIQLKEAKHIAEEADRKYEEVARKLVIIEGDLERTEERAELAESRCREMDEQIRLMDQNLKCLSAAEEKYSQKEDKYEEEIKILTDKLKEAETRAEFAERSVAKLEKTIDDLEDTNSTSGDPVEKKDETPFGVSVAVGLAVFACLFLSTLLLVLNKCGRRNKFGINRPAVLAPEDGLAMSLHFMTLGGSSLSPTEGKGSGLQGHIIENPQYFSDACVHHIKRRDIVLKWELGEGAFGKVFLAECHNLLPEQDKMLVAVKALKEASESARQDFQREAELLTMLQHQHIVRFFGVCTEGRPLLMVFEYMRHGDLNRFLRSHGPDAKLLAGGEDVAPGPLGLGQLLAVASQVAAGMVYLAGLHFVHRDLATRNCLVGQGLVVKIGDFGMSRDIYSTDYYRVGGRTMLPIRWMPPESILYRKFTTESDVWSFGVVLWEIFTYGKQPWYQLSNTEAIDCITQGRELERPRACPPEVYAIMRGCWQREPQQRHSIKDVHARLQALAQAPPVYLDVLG
How it was run: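 KM12 colon cancer cells were treated with DMSO or compounds at 0.1–100 nM, 0.4–30 nM or other stated concentrations for 4, 8–16 or 16 h. RIPA lysates were BCA-normalized and resolved by SDS-PAGE. TPM3-TRKA was detected by chemiluminescent Western blot, with bands quantified by densitometry.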

[3] = 11-point 3-fold serial dilution, 3 days
[4] = TPM3-TRKA degradation in KM12 cells at 10 nM
[5] = TPM3-TRKA degradation in KM12 cells at 10 nM compound, category of percentage degradation

SMILES	IC50 [1, 3] [nM]	percent degradation of TPM3-TRKA protein at 0.01 µM [2, 4] [%]	IC50 ([1]; three days treatment) [nM]	percent degradation of TPM3-TRKA protein at 0.01 µM [2, 5] [%]
COc1ccc(COc2ccc(Cn3c(N)nc4cc(-c5cnn(CC(=O)NCCCCNc6cccc7c6C(=O)N(C6CCC(=O)NC6=O)C7=O)c5)cnc43)cc2OC)cc1 (stereo not shown) [CPD-499, 2-(4-(2-amino-3-(3-methoxy-4-((4-methoxybenzyl)oxy)benzyl)-3H-imidazo[4,5-b]pyridin-6-yl)-1H-pyrazol-1-yl)-N-(4-((2-(2,6-dioxopiperidin-3-yl)-1,3-dioxoisoindolin-4-yl)amino)butyl)acetamide]	11.3	> 80		
COc1ccc(COc2ccc(Cn3c(N)nc4cc(-c5cnn(CC(=O)NCCCCCCNc6cccc7c6C(=O)N(C6CCC(=O)NC6=O)C7=O)c5)cnc43)cc2OC)cc1 (stereo not shown) [CPD-500, 2-(4-(2-amino-3-(3-methoxy-4-((4-methoxybenzyl)oxy)benzyl)-3H-imidazo[4,5-b]pyridin-6-yl)-1H-pyrazol-1-yl)-N-(6-((2-(2,6-dioxopiperidin-3-yl)-1,3-dioxoisoindolin-4-yl)amino)hexyl)acetamide]	13.2	> 80		
COc1ccc(COc2ccc(Cn3c(N)nc4cc(-c5cnn(CC(=O)NCCCCCCCCNc6cccc7c6C(=O)N(C6CCC(=O)NC6=O)C7=O)c5)cnc43)cc2OC)cc1 (stereo not shown) [CPD-501, 2-(4-(2-amino-3-(3-methoxy-4-((4-methoxybenzyl)oxy)benzyl)-3H-imidazo[4,5-b]pyridin-6-yl)-1H-pyrazol-1-yl)-N-(8-((2-(2,6-dioxopiperidin-3-yl)-1,3-dioxoisoindolin-4-yl)amino)octyl)acetamide]	13.2	> 80		
COc1ccc(COc2ccc(Cn3c(N)nc4cc(-c5cnn(CC(=O)NCCCCCCCC(=O)N[C@H](C(=O)N6C[C@H](O)C[C@H]6C(=O)NCc6ccc(-c7scnc7C)cc6)C(C)(C)C)c5)cnc43)cc2OC)cc1 [CPD-510, (2S,4R)-1-((S)-2-(8-(2-(4-(2-amino-3-(3-methoxy-4-((4-methoxybenzyl)oxy)benzyl)-3H-imidazo[4,5-b]pyridin-6-yl)-1H-pyrazol-1-yl)acetamido)octanamido)-3,3-dimethylbutanoyl)-4-hydroxy-N-(4-(4-methylthiazol-5-yl)benzyl)pyrrolidine-2-carboxamide]	58.8	< 50		
COc1ccc(COc2ccc(Cn3c(N)nc4cc(-c5cnn(CC(=O)NCCCCCCCCCC(=O)N[C@H](C(=O)N6C[C@H](O)C[C@H]6C(=O)NCc6ccc(-c7scnc7C)cc6)C(C)(C)C)c5)cnc43)cc2OC)cc1 [CPD-511, (2S,4R)-1-((S)-2-(10-(2-(4-(2-amino-3-(3-methoxy-4-((4-methoxybenzyl)oxy)benzyl)-3H-imidazo[4,5-b]505yridine-6-yl)-1H-pyrazol-1-yl)acetamido)decanamido)-3,3-dimethylbutanoyl)-4-hydroxy-N-(4-(4-methylthiazol-5-yl)benzyl)pyrrolidine-2-carboxamide]	85.8	< 50		
O=C(CN1CCN(c2cccc(-c3cnc4ccc(N5CCC[C@@H]5c5cccc(F)c5)nn34)n2)CC1)NCCOCCNc1cccc2c1C(=O)N(C1CCC(=O)NC1=O)C2=O (stereo partly drawn) [TR-106, N-(2-(2-((2-(2,6-dioxopiperidin-3-yl)-1,3-dioxoisoindolin-4-yl)amino)ethoxy)ethyl)-2-(4-(6-(6-((R)-2-(3-fluorophenyl)pyrrolidin-1-yl)imidazo[1,2-b]pyridazin-3-yl)pyridin-2-yl)piperazin-1-yl)acetamide]			3.8	50 to 80
O=C1CCC(N2C(=O)c3ccc(NCCCCC(=O)N4CCN(c5cccc(-c6cnc7ccc(N8CCC[C@@H]8c8cccc(F)c8)nn67)n5)CC4)cc3C2=O)C(=O)N1 (stereo partly drawn) [TR-115, 2-(2,6-Dioxopiperidin-3-yl)-5-((5-(4-(6-(6-((R)-2-(3-fluorophenyl)pyrrolidin-1-yl)imidazo[1,2-b]pyridazin-3-yl)pyridin-2-yl)piperazin-1-yl)-5-oxopentyl)amino) isoindoline-1,3-dione]			0.9	> 80
O=C(CN1CCN(c2cccc(-c3cnc4ccc(N5CCC[C@@H]5c5cccc(F)c5)nn34)n2)CC1)NCCNc1ccc2c(c1)C(=O)N(C1CCC(=O)NC1=O)C2=O (stereo partly drawn) [TR-130, N-(2-((2-(2,6-dioxopiperidin-3-yl)-1,3-dioxoisoindolin-5-yl]amino)ethyl)-2-(4˜ (6˜ (6-((R)-2-(3-fluorophenyl)pyrrolidin-1-yl)imidazo[1,2-b]pyridazin-3-yl)pyridin-2-yl)piperazin-1-yl)acetamide]			0.9	> 80
O=C(CN1CCN(c2cccc(-c3cnc4ccc(N5CCC[C@@H]5c5cccc(F)c5)nn34)n2)CC1)NCCOCCNc1ccc2c(c1)C(=O)N(C1CCC(=O)NC1=O)C2=O (stereo partly drawn) [TR-135, N-(2-(2-((2-(2,6-dioxopiperidin-3-yl)-1,3-dioxoisoindolin-5-yl)amino)ethoxy)ethyl)-2-(4-(6-(6-((R)-2-(3-fluorophenyl)pyrrolidin-1-yl)imidazo[1,2-b]pyridazin-3-yl)pyridin-2-yl)piperazin-1-yl)acetamide]			0.9	> 80
O=C1CCC(N2C(=O)c3ccc(NCCOCCOCCOCCOCCC(=O)N4CCN(c5ccc(C(=O)Nc6n[nH]c7ccc(Cc8cc(F)cc(F)c8)cc67)c(NC6CCOCC6)c5)CC4)cc3C2=O)C(=O)N1 (stereo not shown) [TR-140, N-(5-(3,5-Difluorobenzyl)-1H-indazol-3-yl)-4-(4-(1-((2-(2,6-dioxopiperidin-3-yl)-1,3-dioxoisoindolin-5-yl)amino)-3,6,9,12-tetraoxapentadecan-15-oyl)piperazin-1-yl)-2˜ ((tetrahydro-2H-pyran-4-yl)amino)benzamide]			1.6	> 80
O=C1CCC(N2Cc3cc(NCC(=O)N4CCN(c5cccc(-c6cnc7ccc(N8CCC[C@@H]8c8cccc(F)c8)nn67)n5)CC4)ccc3C2=O)C(=O)N1 (stereo partly drawn) [TR-190, 3-(5-((2-(4-(6-(6-((R)-2-(3-fluorophenyl)pyrrolidin-1-yl)imidazo[1,2-b]pyridazin-3-yl)pyridin-2-yl)piperazin-1-yl)-2-oxoethyl)amino)-1-oxoisoindolin-2-yl)piperidine-2,6-dione]			8.7	> 80
O=C1CCC(N2C(=O)c3ccc(CCC(=O)N4CCN(c5cccc(-c6cnc7ccc(N8CCC[C@@H]8c8cccc(F)c8)nn67)n5)CC4)cc3C2=O)C(=O)N1 (stereo partly drawn) [TR-194, 2-(2,6-Dioxopiperidin-3-yl)-5-(3-(4-(6-(6-((R)-2-(3-fluorophenyl)pyrrolidin-1-yl)imidazo[1,2-b]pyridazin-3-yl)pyridin-2-yl)piperazin-1-yl)-3-oxopropyl)isoindoline-1,3-dione]			7.4	50 to 80
O=C1CCC(N2C(=O)c3ccc(N4CC(C(=O)N5CCN(c6cccc(-c7cnc8ccc(N9CCC[C@@H]9c9cccc(F)c9)nn78)n6)CC5)C4)cc3C2=O)C(=O)N1 (stereo partly drawn) [TR-211, 2-(2,6-dioxopiperidin-3-yl)-5-(3-(4-(6-(6-((R)-2-(3-fluorophenyl)pyrrolidin-1-yl)imidazo[1,2-b]pyridazin-3-yl)pyridin-2-yl)piperazine-1-carbonyl)azetidin-1-yl)isoindoline-1,3-dione]			2	> 80
Cn1c(=O)n(C2CCC(=O)NC2=O)c2ccc(NCCCN3CCN(c4cccc(-c5cnc6ccc(N7CCC[C@@H]7c7cccc(F)c7)nn56)n4)CC3)cc21 (stereo partly drawn) [TR-221, 3-[5-[3-[4-[6-[6-[(2R)-2-(3-fluorophenyl)pyrrolidin-1-yl]imidazo[1,2-b]pyridazin-3-yl]-2-pyridyl]piperazin-1-yl]propylamino]-3-methyl-2-oxo-benzimidazol-1-yl]piperidine-2,6-dione]			7.8	> 80
O=C1CCC(N2C(=O)c3ccc(N4CCC(CN5CCN(c6cccc(-c7cnc8ccc(N9CCC[C@@H]9c9cccc(F)c9)nn78)n6)CC5)C4)cc3C2=O)C(=O)N1 (stereo partly drawn) [TR-225, 2-(2,6-dioxopiperidin-3-yl)-5-(3-((4-(6-(6-((R)-2˜ (3-fluorophenyl)pyrrolidin-1-yl)imidazo[1,2-b]pyridazin-3-yl)pyridin-2-yl)piperazin-1-yl)methyl)pyrrolidin-1-yl)isoindoline-1,3-dione]			8.4	> 80
O=C1CCC(n2c(=O)n(CCN3CCN(c4cccc(-c5cnc6ccc(N7CCC[C@@H]7c7cccc(F)c7)nn56)n4)CC3)c3ccccc32)C(=O)N1 (stereo partly drawn) [TR-227, 3-(3-(2-(4-(6-(6-((R)-2-(3-Fluorophenyl)pyrrolidin-1-yl)imidazo[1,2-b]pyridazin-3-yl)pyridin-2-yl)piperazin-1-yl)ethyl)-2-oxo-2,3-dihydro-1H-benzo[d]imidazol-1-yl)piperidine-2,6-dione]			23.6	50 to 80
O=C1CCC(n2c(=O)n(CCCN3CCN(c4cccc(-c5cnc6ccc(N7CCC[C@@H]7c7cccc(F)c7)nn56)n4)CC3)c3ccccc32)C(=O)N1 (stereo partly drawn) [TR-228, 3-(3-(3-(4-(6-(6-((R)-2-(3-fluorophenyl)pyrrolidin-1-yl)imidazo[1,2-b]pyridazin-3-yl)pyridin-2-yl)piperazin-1-yl)propyl)-2-oxo-2,3-dihydro-1H-benzo[d]imidazol-1-yl)piperidine-2,6-dione]			56.3	50 to 80
